What all share (assay): GsX GloSensor assay with Gsα/q11
Common to all, as to format: cell-based

Test [1] relates to human melanopsin L207^5.42A mutant. To be noted: 16.7 μM AA92593, COS-1 cells. The method, then:
(§1) Based on the docking and MD simulations of human melanopsin with AA92593, importance of the interactions of Trp-189^ECL2 and Leu-207^5.42 with the antagonist was experimentally examined using the GsX GloSensor assay. To validate the interaction between Trp-189^ECL2 and AA92593, substitutions of W189^ECL2F, W189^ECL2I, or W189^ECL2V in human melanopsin were tested. […] To assess the importance of Leu-207^5.42 in the interaction with AA92593, substitutions L207^5.42V, L207^5.42A, or L207^5.42F in human melanopsin were tested. […] Of note, the L207^5.42F substitution enhanced the sensitivity (∼8%) of human melanopsin to AA92593 (Fig. 5F), although the difference was not statistically significant (Fig. 5H). Dose-dependent curve of reduction in the GsX GloSensor signals of the L207^5.42F was shifted by ∼0.6 μM from the curve of WT (Fig. 5I). The introduction of a Phe residue at position 207^5.42 caused additional interactions between the phenyl ring in Phe-207^5.42 and some functional groups in AA92593. The marked changes in the antagonistic effects of Trp-189^ECL2 and Leu-207^5.42 substitutions are consistent with our molecular simulations, showing that these residues are located at the antagonist-binding site (Fig. 4B).
(§2) For GloSensor assay, opsins, GloSensor assay sensor (coded by pGlo-22F), and NanoBiT-tagged G proteins were transiently expressed in COS-1 cells (kindly provided from Dr David Farrens, Oregon Health and Science University) using PEI as described previously ([24], [52]). For the GsX GloSensor assay ([12], [13]), each well of a 96-well assay plate (Corning) was transfected with 50 ng opsin plasmid, 16.7 ng G protein plasmid, 50 ng pGlo-22F plasmid (Promega), and 500 ng PEI in 25 μl Opti-mem and 75 μl Dulbecco's modified Eagle's medium (D-MEM). For NanoBiT G protein dissociation assay, each well of a 96-well assay plate was transfected with 50 ng opsin plasmid, 5 ng Lg-BiT inserted Gqα (Gqα-LgBiT) plasmid, 25 ng Gβ1 plasmid, 25 ng Sm-BiT fused Gγ2 plasmid, 5 ng RIC8A plasmid, and 500 ng PEI in 25 μl Opti-mem and 75 μl D-MEM. For GFP-fluorescence microscopy, a 35-mm cell culture dish (IWAKI) was transfected with 2 μg melanopsin-GFP plasmid and 8 μg PEI in 400 μl Opti-mem and 1.2 ml D-MEM. For melanopsin purification, ten of 100-mm cell culture dishes (NEST) were transfected with 150 μg melanopsin plasmid and 500 μg PEI in 25 ml Opti mem and 75 ml D-MEM.
(§3) The transfected COS-1 cells were incubated at 37 °C, 5% CO2 for 2 days, and the medium was aspirated and exchanged with 50 μl of HBSS (145 mM NaCl, 10 mM D-glucose, 5 mM KCl, 1 mM MgCl2, 1.7 mM CaCl2, 1.5 mM NaHCO3, 10 mM Hepes, pH 7.4), containing 33.3, 20, 10, 2, 0.2, 0.02, 0.002, or 0 μM AA92593, 0.5% dimetyl sulfoxide (DMSO), and 4% (vol/vol) GloSensor cAMP reagent stock solution. Under our experimental conditions, >50 μM AA92593 was not fully dissolved in the HBSS solution, and we set maximal concentration of AA92593 (Glixx Laboratories) at 33.3 μM (final concentration of 16.7 μM, see below). Then, the cells were incubated at room temperature for 1 h, and luminescence changes were monitored. After incubation of the cells with AA92593, luminescence measurement was interrupted, the plate was ejected, and the cells were added with 50 μl of HBSS containing 0.2 μM 9-cis-retinal. The final exogenous AA92593 concentrations were 16.7, 10, 5, 1, 0.1, 0.01, 0.001, or 0 μM, and retinal concentration was 0.1 μM. Twenty millimolars of stock solution of AA92593 was prepared in DMSO, and final concentration of DMSO was kept at 0.25% regardless final AA92593 concentration. Then, the cells were incubated at room temperature for 1 h. Luminescence was measured using GM-2000 or GM-3510 microplate reader (Promega). Luminescence level of each well was measured every 30 s with integration time of 0.6 to 0.9 s. […]

Test [2] addresses T1, human melanopsin L207^5.42F mutant (Homo sapiens, UniProt Q9UHM6, L239F).
T1 construct: the C-terminal amino acid residues (94, 140, 200, 214, 296, and 308 residues); expressed in transfected cells; host or cells: COS-1
T1 sequence (Q9UHM6 1-384 L239F limits assumed): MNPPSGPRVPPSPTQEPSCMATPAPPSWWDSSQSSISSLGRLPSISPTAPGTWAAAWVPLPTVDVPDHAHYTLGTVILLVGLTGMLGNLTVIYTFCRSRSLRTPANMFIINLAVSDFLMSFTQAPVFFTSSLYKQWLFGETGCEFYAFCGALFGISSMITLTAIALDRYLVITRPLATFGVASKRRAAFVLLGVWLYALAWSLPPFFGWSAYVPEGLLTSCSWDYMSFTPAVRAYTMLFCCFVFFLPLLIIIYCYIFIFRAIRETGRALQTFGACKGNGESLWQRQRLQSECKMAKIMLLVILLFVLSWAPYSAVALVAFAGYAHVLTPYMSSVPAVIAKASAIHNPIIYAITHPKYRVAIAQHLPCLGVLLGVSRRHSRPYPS
The procedure:
as §1, §2, §3

For test [3], the system named is human melanopsin L207^5.42V mutant. The following applies: 16.7 μM AA92593, COS-1 cells. The method, then:
as §1, §2, §3

In test [4] the test system is human melanopsin W189^ECL2F mutant. The following applies: 16.7 μM AA92593, COS-1 cells. The procedure:
as §1, §2, §3

In test [5] the target is T2, human melanopsin W189^ECL2I mutant (Homo sapiens, UniProt Q9UHM6, W223I).
T2 construct: expressed in transfected cells; host or cells: COS-1
To be noted: 16.7 μM AA92593, COS-1 cells. The method, then:
as §1, §2, §3

Test [6] addresses T3, human melanopsin W189^ECL2V mutant (Homo sapiens, UniProt Q9UHM6, W223V).
T3 construct: expressed in transfected cells; host or cells: COS-1
The following applies: 16.7 μM AA92593, COS-1 cells. The procedure: as §1, §2, §3

The mark [7] stands for this setting: relative peak cAMP response vs no AA92593.

T3 sequence (Q9UHM6 1-384 W223V limits assumed): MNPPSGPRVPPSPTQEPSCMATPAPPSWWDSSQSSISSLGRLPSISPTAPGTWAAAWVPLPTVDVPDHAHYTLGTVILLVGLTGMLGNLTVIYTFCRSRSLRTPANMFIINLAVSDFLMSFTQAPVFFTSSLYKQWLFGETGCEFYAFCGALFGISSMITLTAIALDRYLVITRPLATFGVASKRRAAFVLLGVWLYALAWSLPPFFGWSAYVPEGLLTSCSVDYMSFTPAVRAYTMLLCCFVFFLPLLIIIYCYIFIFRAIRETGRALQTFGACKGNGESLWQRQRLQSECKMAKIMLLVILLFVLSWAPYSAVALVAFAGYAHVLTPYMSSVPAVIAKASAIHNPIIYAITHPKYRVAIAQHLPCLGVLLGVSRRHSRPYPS
T2 sequence (Q9UHM6 1-384 W223I limits assumed): as the sequence (Q9UHM6 1-384 W223V limits assumed) above, with V223I counted along it

With `COc1ccc(S(=O)(=O)N2CCCCC2)cc1C` [AA92593], the “reduced antagonistic effect of AA92593 vs WT” value is given as roughly 12% in test [1] and roughly 15% in test [3]. For the same compound, the “Hill fitting parameter rate of dose-response curve” value in test [2] is given as −0.88 ± 0.29. Further, in test [2] (16.7 μM AA92593, COS-1 cells, Gsα/q11, difference not statistically significant), the “enhanced sensitivity to AA92593 vs WT” value is recorded as roughly 8%. For the same compound, the IC50 in test [2] (COS-1 cells, n = 3, read-out: IC50, reduction in peak cAMP responses upon Gsα/q11 activation) came to 350 ± 160 nM. In test [2] (setting [7]), the “Hill fitting parameter max of dose-response curve” value was determined as 98.88 ± 4.88. Besides, the “Hill fitting parameter min of dose-response curve” value in test [2] (setting [7]) worked out at 3.15 ± 9.9. Further, the “decrease in sensitivity to AA92593 vs WT” value in test [4] is on record as roughly 60%. The “inhibitory effect of AA92593 compared to WT” value in test [5] and in test [6] was “significantly weaker” each time.

(Values after paper PMC12051620, “Molecular basis underlying the specificity of an antagonist AA92593 for mammalian melanopsins” (The Journal of Biological Chemistry, 2025).)
